Assay results reported in ChEMBL document CHEMBL1781897, “Synthesis, biological evaluation of prenylflavonoids as vasorelaxant and neuroprotective agents” (Bioorg Med Chem Lett, 2009).

How the values were obtained:
PC-12 [1] = assay: Neuroprotective activity against oxygen-glucose deprivation-induced cell injury in rat PC12 cells assessed as cell viability at 1 uM; assay type: functional; conditions: read-out: Activity
Aorta [2] = assay: Vasorelaxant activity in rat aortic ring assessed as inhibition of phenylephrine-induced contraction relative to control; assay type: functional
Aorta [3] = assay: Vasorelaxant activity in rat aortic ring assessed as inhibition of phenylephrine-induced contraction; assay type: functional, tissue-based
PC-12 [4] = assay: Neuroprotective activity against oxygen-glucose deprivation-induced cell injury in rat PC12 cells assessed as cell viability; assay type: functional, cell-based
PC-12 [5] = assay: Neuroprotective activity against oxygen-glucose deprivation-induced cell injury in rat PC12 cells assessed as cell viability at 30 uM; assay type: functional; conditions: read-out: Activity

SMILES | viability at 1 µM (PC-12 [1]) [%] | Emax (Aorta [2]) [%] | EC50 (Aorta [3]) [µM] | Activity (PC-12 [4]) | viability at 30 µM (PC-12 [5]) [%]
CC(C)=CCc1c(O)cc(O)c2c1OC(c1ccc(O)cc1)CC2=O (centres undefined) [SOPHORAFLAVANONE B] | 89.3 | 101 | 72.7 |  | 
CC(C)=CCc1c(O)cc(O)c2c1OC(c1ccc(O)cc1O)CC2=O (racemic) | 94.8 | 94.9 | 9.3 | Dose-dependent effect | 
CC(C)=CCc1c(O)cc(O)c2c1OC(c1cccc(Br)c1)CC2=O (centres undefined) | 88.1 |  |  |  | 
COc1cc([C@@H]2CC(=O)c3c(O)cc(O)cc3O2)ccc1O (racemic) [HOMOERIODICTYOL] | 89.1 | 74.9 | 82 |  | 
COc1cc(C2CC(=O)c3c(O)cc(O)c(CC=C(C)C)c3O2)cc(OC)c1OC (centres undefined) | 89.1 | 66.3 | 25 |  | 
CC(C)=CCc1c(O)cc(O)c2c(=O)cc(-c3ccc(O)cc3O)oc12 | 93.5 | 91.5 | 176 | Dose-dependent effect | 
CC1=NN(c2ccccc2)C(=O)C1 [EDARAVONE] |  |  |  |  | 93.2
CC(C)=CCc1c(O)cc(O)c2c1O/C(=C\c1ccc(O)cc1)C2=O | 81.6 | 74.5 |  |  | 
CC(C)=CCc1c(O)cc(O)c2c(=O)cc(-c3ccc(O)c(O)c3)oc12 | 91.5 | 62.5 |  |  | 
CC(C)=CCc1c(O)cc(O)c2c1O/C(=C\c1ccc(O)cc1O)C2=O | 90.4 | 30.5 |  |  | 
CC(C)=CCc1c(O)cc(O)c2c1OC(c1ccc(O)c(O)c1O)CC2=O (centres undefined) | 90.3 | 69.7 |  |  | 
CC(C)=CCc1c(O)cc(O)c(C(=O)/C=C/c2ccc(O)cc2)c1O [DEMETHYLXANTHOHUMOL] | 86.7 | 81.4 | 8.5 |  | 
O=c1c(O)c(-c2ccc(O)c(O)c2)oc2cc(O)cc(O)c12 [QUERCETIN] |  | 91.3 |  |  | 
CC(C)=CCc1c(O)cc(O)c2c(=O)cc(-c3ccc(O)c(O)c3O)oc12 | 88.6 |  |  |  | 
COc1cc(C2CC(=O)c3c(O)cc(O)c(CC=C(C)C)c3O2)ccc1O (centres undefined) | 94 |  |  | Dose-dependent effect | 
